In ChEMBL document CHEMBL1201862, “PubChem BioAssay data set” (2004):
Active and inactive are the calls of the source.

Key:
[1] = HPDE-C7 pancreatic duct cell viability loss – fluorescence, HTS (AID 430); format: functional, cell-based; details: Homo sapiens
[2] = viability loss of HPDE-C7K cells – cell-based, fluorescence, HTS, primary screen (AID 431); format: functional; details: Homo sapiens
[3] = viability of PTEN-deleted HCT116 cells – cell-based, HCT116 PTEN knockout, dose response (AID 1047); format: functional;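 further: HCT116 colon tumor cells with PTEN knocked out; cells exposed to compound for 60 hours before readout; potency for loss of cell viability measured by luminescence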
[4] = viability of HCT116 lacking mutant beta-catenin – cell-based, human colon tumor, dose response (AID 1045); format: functional;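 further: HCT116 colon tumor cells with beta catenin knocked out; cells exposed to compound for 60 hours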
[5] = system: HEK293; assay: EBV LMP1 TES2 canonical NF-kB signalling blockers – cell-based, HEK293, luciferase, cherry-pick, dose response (AID 588343); format: functional; details: Homo sapiens
[6] = molecular target: Latent membrane protein 1 (Human herpesvirus 4 (strain B95-8), UniProt P03230); assay: LMP1 TES1 pathway selectivity over dsRED control – imaging, HEK293T, dual-color eGFP/dsRED, cherry-picks, selectivity assay for LMP1 NF-kB inhibitor project, dose response (AID 588398); format: functional, cell-based
[7] = molecular target: Cyclin-dependent kinase 2 (Homo sapiens, UniProt P24941); assay: inhibition of human CDK2/cyclin A – biochemical, cherry-picked samples, selectivity assay for Dyrk1A inhibitor project, dose response (AID 602127)
[8] = molecular target: Dual specificity protein kinase CLK1 (Homo sapiens, UniProt P49759); assay: inhibition of human CLK1 activity – biochemical, cherry-picked samples, selectivity assay for Dyrk1A inhibitor project, dose response (AID 588811)
[9] = Mcl1-dependent cancer cell viability – HMC-1-8 cells, luminescence, dry powder, selectivity assay for A1 inhibitor project, dose response (AID 504415); format: functional, cell-based; details: Homo sapiens
[10] = system: CHO-K1; assay: Counterscreen for antagonists of the orexin 1 receptor (OX1R; HCRTR1): Homogeneous time resolved fluorescence (HTRF)-based cell-based dose response assay to identify antagonists of the parental CHO-K1 cell line. [Related pubchem assays (depositor defined):AID434989, AID435008, AID463079, AID485270, AID492963, AID492964, AID492965, AID493232, AID504699, AID504701]; format: functional; details: Cricetulus griseus;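 further: potency for inhibition of ATP-stimulated IP1 production as antagonists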
[11] = Counterscreen for antagonists of the orexin 1 receptor (OX1R; HCRTR1): Fluorescence-based cell-based high throughput dose response assay to identify antagonists of the parental CHO cell line. [Related pubchem assays (depositor defined):AID434989, AID435008, AID463079, AID485270, AID492963, AID492964, AID492965, AID493232, AID504699, AID504701]; format: functional
[12] = molecular target: T1, Orexin/Hypocretin receptor type 1 (Homo sapiens, UniProt O43613); assay: Homogeneous Time Resolved Fluorescence (HTRF)-based cell-based high throughput dose response assay for antagonists of the orexin 1 receptor (OX1R; HCRTR1). [Related pubchem assays (depositor defined):AID434989, AID435008, AID463079, AID485270, AID492963, AID492964, AID492965, AID493232, AID504717, AID504718]; format: functional
T1 sequence (O43613 whole entry): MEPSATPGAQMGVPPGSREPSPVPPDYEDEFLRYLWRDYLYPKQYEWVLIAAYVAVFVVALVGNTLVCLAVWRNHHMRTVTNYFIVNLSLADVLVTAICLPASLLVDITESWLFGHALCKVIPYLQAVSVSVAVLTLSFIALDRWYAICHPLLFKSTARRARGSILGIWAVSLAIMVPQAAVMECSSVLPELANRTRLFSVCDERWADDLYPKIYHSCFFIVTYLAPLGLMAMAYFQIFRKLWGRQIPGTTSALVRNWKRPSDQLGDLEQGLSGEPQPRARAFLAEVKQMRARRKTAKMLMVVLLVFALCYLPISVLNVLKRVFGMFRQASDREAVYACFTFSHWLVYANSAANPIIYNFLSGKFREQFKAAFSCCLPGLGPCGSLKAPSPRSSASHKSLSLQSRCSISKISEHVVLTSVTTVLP

[13] = molecular target: T1, Orexin/Hypocretin receptor type 1; assay: Fluorescence-based cell-based high throughput dose response assay for antagonists of the orexin 1 receptor (OX1R; HCRTR1). [Related pubchem assays (depositor defined):AID434989, AID435008, AID463079, AID485270, AID492963, AID492964, AID492965, AID493232, AID504717, AID504718]; format: functional
[14] = molecular target: T2, Orexin receptor type 2 (Homo sapiens, UniProt O43614); assay: Counterscreen assay for antagonists of the orexin 1 receptor (OX1R; HCRTR1): Fluorescence-based cell-based dose response assay for antagonists of the orexin 2 receptor (OX2R; HCRTR2), run by assay provider.; format: functional
[15] = molecular target: T2, Orexin receptor type 2; assay: Counterscreen assay for antagonists of the orexin 1 receptor (OX1R; HCRTR1): Homogeneous Time Resolved Fluorescence (HTRF)-based cell-based dose response assay for antagonists of the orexin 2 receptor (OX2R; HCRTR2), run by assay provider.; format: functional
[16] = molecular target: T3, Ubiquitin-conjugating enzyme E2 N (Homo sapiens, UniProt P61088); format: functional;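 further: Dose-response confirmation in a TR-FRET assay detecting UBC13-driven polyubiquitin chain formation, inhibition measured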
T3 sequence (P61088 whole entry): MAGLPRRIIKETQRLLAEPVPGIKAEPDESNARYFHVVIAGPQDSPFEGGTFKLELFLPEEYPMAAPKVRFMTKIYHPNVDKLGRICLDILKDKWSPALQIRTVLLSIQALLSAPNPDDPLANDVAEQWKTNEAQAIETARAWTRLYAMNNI

[17] = molecular target: Glycogen synthase kinase-3 alpha (Homo sapiens, UniProt P49840); assay: Inhibition of Human GSK-3 alpha Activity Measured in Biochemical System Using Microfluidics - 2063-06_Inhibitor_Dose_DryPowder_Activity_Set2. [Related pubchem assays (depositor defined):AID2709]
[18] = molecular target: T4, Glycogen synthase kinase-3 beta (Homo sapiens, UniProt P49841); assay: Inhibition of Human GSK-3 beta Activity Measured in Biochemical System Using Microfluidics - 2063-05_Inhibitor_Dose_DryPowder_Activity_Set2. [Related pubchem assays (depositor defined):AID2709]
[19] = molecular target: Cyclin-dependent kinase 5/CDK5 activator 1 (Homo sapiens, UniProt Q00535); assay: human CDK5 activity blockade – biochemical, microfluidic mobility shift, dry powder, selectivity assay for GSK-3 alpha inhibitor project, dose response (AID 588430)
[20] = molecular target: Testis-specific serine/threonine-protein kinase 2 (Homo sapiens, UniProt Q96PF2); format: functional;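 further: part of the Navigating the Kinome panel, target entry STK22B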
[21] = molecular target: Protein disulfide-isomerase (Homo sapiens, UniProt P07237); assay: inhibition of PDI-driven insulin aggregation – biochemical, turbidity, absorbance, cherry-picked samples, dose response (AID 602350); format: functional
[22] = molecular target: T5, Methionyl-tRNA synthetase, putative (Trypanosoma brucei brucei, UniProt Q38C91); format: functional, Trypanosoma brucei brucei strain 927/4 GUTat10.1
T5 sequence (Q38C91 whole entry): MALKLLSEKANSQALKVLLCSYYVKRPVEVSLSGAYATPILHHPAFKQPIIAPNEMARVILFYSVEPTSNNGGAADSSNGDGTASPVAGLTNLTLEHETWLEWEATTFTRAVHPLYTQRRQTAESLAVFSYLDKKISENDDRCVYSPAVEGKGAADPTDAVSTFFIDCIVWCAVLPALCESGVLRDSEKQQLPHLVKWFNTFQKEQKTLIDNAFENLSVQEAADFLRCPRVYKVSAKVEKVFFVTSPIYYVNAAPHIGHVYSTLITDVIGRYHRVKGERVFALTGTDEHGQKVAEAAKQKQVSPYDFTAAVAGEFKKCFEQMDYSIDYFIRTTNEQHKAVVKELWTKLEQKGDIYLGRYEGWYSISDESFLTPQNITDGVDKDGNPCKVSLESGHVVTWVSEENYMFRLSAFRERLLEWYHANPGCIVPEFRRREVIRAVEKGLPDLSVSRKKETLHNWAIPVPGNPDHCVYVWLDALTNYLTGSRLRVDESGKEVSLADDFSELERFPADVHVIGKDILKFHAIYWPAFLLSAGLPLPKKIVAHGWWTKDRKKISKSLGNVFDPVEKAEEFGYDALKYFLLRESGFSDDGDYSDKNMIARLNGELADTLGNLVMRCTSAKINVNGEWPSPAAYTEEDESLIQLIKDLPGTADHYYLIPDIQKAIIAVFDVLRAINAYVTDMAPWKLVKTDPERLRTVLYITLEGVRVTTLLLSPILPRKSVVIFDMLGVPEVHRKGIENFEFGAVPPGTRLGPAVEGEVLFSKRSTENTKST

[23] = Counterscreen for inhibitors of Trypanosoma brucei methionyl tRNA synthetase (MetRS): Luminescence-based cell-based high throughput dose response assay to identify compounds that are cytotoxic to Jurkat human T lymphocyte cells.; format: functional
[24] = molecular target: T5, Methionyl-tRNA synthetase, putative; format: functional, Trypanosoma brucei brucei strain 927/4 GUTat10.1; remark: listed apart in the source
[25] = Luminescence Cell-Based Dose Retest to Confirm Inhibitors of Cancer Stem Cells. [Related pubchem assays (depositor defined):AID2717, AID2721]; format: functional; details: Homo sapiens
[26] = system: INS1; assay: INS-1E survival protection against cytokine death – cell-based, luminescence, retest, dose response (AID 449756); format: functional; details: Rattus norvegicus;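 further: cell death triggered by IL-1 beta plus TNF-alpha plus IFN-gamma mixture; protective hits raise ATP signal compared with cytokine alone wells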
[27] = molecular target: T6, High affinity choline transporter 1 (Homo sapiens, UniProt Q9GZV3); assay: human choline transporter potentiators, potency – cell-based, 10-point CRC, membrane potential dye, dose response (AID 602376); format: functional
T6 sequence (Q9GZV3 whole entry): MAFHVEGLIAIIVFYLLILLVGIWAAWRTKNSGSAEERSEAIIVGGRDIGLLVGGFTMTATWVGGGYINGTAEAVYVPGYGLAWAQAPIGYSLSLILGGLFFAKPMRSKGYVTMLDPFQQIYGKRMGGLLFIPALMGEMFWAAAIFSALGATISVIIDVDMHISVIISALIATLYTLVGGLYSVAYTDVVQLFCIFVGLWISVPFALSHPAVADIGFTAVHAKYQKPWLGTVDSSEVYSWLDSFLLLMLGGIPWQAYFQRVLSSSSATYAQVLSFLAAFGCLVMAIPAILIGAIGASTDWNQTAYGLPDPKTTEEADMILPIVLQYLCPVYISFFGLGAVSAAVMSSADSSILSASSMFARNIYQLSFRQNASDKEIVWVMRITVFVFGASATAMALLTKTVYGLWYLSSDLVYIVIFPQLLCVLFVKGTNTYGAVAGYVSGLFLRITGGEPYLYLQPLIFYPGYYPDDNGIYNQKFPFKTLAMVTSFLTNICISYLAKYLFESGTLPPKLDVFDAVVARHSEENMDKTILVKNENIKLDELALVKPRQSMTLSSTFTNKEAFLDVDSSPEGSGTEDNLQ

[28] = viability loss in HepG2 liver cells – cell-based, ATP luminescence, cherry-pick, set 6, cytotoxicity control, dose response (AID 1053125); format: functional
[29] = molecular target: RNA-editing ligase 1, mitochondrial (Trypanosoma brucei brucei, UniProt P86926); assay: inhibition of trypanosome RNA editing ligase – biochemical, fluorescence, Trypanosoma brucei, dose response (AID 1117295); format: functional
[30] = cells; details: A549
[31] = cells; details: HEK293
[32] = molecular target: ALK tyrosine kinase receptor (Homo sapiens, UniProt Q9UM73); format: functional;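 further: ALK tested as one member of a kinase panel screen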
[33] = molecular target: Serine/threonine-protein kinase pim-1 (Homo sapiens, UniProt P11309); format: functional
[34] = molecular target: Cell division cycle 7-related protein kinase (Homo sapiens, UniProt O00311); format: functional;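 further: value obtained from a kinome-wide kinase panel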
[35] = molecular target: Homeodomain-interacting protein kinase 2 (Homo sapiens, UniProt Q9H2X6); format: functional;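 further: measured within a kinome-wide kinase profiling panel, HIPK2 being one panel member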
[36] = molecular target: Interleukin-1 receptor-associated kinase 4 (Homo sapiens, UniProt Q9NWZ3); format: functional
[37] = molecular target: T4, Glycogen synthase kinase-3 beta; format: functional
[38] = molecular target: cAMP-dependent protein kinase catalytic subunit alpha (Homo sapiens, UniProt P17612); format: functional

T4 sequence (P49841 whole entry): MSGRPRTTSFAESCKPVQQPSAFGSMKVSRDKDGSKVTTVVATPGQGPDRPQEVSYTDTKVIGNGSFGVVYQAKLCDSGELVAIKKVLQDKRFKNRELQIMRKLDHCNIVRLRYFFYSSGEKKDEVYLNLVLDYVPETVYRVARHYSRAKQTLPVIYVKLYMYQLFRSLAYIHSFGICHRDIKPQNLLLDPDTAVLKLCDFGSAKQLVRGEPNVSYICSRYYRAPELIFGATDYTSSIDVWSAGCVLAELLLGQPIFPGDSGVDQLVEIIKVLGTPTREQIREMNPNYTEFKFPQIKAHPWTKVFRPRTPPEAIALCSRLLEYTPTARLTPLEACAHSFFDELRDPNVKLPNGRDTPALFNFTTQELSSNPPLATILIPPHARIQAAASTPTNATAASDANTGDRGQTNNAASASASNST
T2 sequence (O43614 whole entry): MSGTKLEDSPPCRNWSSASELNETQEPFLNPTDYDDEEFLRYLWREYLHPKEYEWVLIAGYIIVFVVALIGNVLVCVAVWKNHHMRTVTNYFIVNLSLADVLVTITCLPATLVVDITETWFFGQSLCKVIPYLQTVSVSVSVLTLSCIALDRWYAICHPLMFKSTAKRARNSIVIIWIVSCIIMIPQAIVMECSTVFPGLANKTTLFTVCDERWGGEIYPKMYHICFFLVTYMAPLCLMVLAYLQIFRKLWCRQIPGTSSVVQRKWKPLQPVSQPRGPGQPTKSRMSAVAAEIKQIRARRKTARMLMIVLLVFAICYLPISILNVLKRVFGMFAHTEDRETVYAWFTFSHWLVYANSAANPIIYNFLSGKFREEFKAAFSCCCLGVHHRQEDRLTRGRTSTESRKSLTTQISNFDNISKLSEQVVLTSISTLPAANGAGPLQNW
Chain of Latent membrane protein 1 (P03230 whole entry): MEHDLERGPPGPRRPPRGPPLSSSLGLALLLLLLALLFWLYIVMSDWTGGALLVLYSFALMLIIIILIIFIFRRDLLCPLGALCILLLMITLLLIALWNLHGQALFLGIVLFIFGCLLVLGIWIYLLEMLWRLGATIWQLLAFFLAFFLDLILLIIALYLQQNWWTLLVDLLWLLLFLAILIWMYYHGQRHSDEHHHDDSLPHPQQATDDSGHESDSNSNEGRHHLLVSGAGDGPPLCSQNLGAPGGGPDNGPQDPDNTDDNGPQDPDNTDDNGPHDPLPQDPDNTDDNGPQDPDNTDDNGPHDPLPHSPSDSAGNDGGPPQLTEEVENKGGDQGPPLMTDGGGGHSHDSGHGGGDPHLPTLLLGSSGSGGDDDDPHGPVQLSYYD
Chain of Interleukin-1 receptor-associated kinase 4 (Q9NWZ3 whole entry): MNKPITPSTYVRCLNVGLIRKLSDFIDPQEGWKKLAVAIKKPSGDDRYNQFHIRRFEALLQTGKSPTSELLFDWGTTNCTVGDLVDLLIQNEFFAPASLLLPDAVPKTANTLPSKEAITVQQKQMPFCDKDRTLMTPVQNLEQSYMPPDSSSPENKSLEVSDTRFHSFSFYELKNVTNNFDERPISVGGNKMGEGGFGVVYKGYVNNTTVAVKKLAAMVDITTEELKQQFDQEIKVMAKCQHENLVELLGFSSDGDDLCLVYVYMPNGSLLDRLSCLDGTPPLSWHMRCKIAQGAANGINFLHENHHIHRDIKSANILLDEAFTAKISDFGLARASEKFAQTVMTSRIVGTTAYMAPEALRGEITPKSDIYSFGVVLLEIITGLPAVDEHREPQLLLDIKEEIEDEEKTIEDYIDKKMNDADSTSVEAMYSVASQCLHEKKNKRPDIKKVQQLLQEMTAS
Chain of ALK tyrosine kinase receptor (Q9UM73 whole entry): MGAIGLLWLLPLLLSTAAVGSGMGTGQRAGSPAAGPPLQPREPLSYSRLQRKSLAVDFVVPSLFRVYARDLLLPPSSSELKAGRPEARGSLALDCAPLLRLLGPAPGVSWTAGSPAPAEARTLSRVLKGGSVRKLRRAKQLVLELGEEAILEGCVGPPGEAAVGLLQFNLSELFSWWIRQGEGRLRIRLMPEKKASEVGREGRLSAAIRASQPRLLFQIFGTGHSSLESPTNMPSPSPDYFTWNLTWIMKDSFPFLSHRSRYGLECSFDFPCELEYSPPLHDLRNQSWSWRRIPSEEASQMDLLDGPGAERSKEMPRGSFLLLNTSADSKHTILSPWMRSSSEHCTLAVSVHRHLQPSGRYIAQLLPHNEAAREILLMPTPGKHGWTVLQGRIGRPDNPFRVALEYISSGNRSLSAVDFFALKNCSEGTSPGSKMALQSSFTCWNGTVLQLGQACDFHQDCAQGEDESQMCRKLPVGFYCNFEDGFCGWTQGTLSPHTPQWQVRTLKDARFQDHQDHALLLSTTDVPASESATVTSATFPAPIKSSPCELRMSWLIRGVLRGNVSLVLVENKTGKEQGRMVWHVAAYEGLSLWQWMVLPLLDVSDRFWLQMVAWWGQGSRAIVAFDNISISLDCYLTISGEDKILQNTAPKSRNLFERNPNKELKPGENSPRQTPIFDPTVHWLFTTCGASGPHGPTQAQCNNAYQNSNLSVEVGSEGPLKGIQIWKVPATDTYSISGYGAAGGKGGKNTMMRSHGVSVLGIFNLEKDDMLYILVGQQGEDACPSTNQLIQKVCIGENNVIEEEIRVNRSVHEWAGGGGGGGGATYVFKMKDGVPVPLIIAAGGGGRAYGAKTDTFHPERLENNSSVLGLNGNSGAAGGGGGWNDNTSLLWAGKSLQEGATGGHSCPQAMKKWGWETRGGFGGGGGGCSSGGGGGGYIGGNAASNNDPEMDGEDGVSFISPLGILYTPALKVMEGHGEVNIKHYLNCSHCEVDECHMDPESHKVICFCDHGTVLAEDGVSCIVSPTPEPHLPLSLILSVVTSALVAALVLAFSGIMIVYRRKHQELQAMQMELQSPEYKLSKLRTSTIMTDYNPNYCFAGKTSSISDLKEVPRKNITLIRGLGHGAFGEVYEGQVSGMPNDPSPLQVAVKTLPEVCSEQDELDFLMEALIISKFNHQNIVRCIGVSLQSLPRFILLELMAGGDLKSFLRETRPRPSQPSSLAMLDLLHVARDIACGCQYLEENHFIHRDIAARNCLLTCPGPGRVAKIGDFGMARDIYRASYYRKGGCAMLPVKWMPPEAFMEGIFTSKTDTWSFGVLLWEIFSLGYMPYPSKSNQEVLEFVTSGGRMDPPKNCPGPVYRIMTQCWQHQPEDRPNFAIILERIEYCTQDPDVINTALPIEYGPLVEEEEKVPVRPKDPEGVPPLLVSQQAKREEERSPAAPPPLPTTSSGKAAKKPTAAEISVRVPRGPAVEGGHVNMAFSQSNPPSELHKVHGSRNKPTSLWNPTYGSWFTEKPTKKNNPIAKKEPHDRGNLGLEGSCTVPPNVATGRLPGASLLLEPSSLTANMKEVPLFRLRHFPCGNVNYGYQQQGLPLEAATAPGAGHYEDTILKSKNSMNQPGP
Chain of Cell division cycle 7-related protein kinase (O00311 whole entry): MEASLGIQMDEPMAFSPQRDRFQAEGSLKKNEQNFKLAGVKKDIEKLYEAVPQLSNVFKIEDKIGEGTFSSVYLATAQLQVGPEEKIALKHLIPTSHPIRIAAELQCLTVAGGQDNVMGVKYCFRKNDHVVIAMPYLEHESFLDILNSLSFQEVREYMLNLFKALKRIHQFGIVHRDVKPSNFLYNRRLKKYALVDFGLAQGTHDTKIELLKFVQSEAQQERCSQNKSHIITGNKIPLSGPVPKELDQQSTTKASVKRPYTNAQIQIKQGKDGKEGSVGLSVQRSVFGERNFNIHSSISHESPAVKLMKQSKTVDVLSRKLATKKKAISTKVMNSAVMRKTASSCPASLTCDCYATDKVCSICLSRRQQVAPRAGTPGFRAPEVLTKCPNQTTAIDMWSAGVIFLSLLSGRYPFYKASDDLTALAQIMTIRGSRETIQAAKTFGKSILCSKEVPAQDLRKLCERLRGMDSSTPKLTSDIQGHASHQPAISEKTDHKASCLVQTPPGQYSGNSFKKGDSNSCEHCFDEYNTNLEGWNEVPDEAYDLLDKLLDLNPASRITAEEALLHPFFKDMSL
Chain of RNA-editing ligase 1, mitochondrial (P86926 whole entry): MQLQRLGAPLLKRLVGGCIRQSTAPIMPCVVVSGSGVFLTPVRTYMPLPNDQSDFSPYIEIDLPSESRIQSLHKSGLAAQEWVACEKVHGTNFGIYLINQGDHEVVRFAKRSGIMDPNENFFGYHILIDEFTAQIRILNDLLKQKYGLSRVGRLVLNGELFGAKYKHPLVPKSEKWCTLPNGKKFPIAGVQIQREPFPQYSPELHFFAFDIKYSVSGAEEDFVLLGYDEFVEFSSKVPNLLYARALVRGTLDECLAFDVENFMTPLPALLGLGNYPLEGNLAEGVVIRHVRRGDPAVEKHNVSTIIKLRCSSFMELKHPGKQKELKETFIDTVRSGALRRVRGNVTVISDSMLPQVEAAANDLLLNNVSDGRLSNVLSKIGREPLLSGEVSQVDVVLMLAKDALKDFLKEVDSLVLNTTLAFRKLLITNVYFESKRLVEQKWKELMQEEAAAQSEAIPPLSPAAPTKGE
Chain of Testis-specific serine/threonine-protein kinase 2 (Q96PF2 whole entry): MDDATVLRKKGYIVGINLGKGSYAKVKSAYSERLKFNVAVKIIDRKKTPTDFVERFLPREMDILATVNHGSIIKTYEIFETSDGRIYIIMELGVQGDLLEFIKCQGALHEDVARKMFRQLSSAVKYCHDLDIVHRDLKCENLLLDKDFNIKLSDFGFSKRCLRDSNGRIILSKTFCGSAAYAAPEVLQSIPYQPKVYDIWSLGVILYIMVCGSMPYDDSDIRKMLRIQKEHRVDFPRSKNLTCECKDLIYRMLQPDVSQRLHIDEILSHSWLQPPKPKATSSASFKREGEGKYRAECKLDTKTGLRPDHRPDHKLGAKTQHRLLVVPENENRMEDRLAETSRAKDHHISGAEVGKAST

## COc1ccc(C(=O)C(CN2CCOCC2)c2ccccc2)cc1F (centres undefined)
[1]
  EC50: 5.54 µM (active)
[2]
  EC50: 8.65 µM (active)
[3]
  EC50: 2.19 µM (active)
[4]
  EC50: 1.31 µM (active)
[5]
  AC50: 13.2 µM (active)
[6]
  AC50: 5.06 µM (active)

## Cc1ccc(CN(C)c2ncnc3ccc(-c4ccc5c(c4)OCO5)cc23)o1
[7]
  AC50: 11.3 µM (active)
[8]
  AC50: < 0.00195 µM (active)

## Cc1ccc(Sc2c([N+](=O)[O-])cnc3ccccc23)cc1
[9]
  AC50: 22.9 µM (active)

## Cc1ccc(-c2cc3nc(-c4ccccc4)cc(N4CCC5(CC4)OCCO5)n3n2)cc1
[10]
  IC50: > 66.2 µM (inactive)
[11]
  IC50: > 49.7 µM (inactive)
[12]
  IC50: 5.68 µM (active)
[13]
  IC50: 17.4 µM (inactive)
[14]
  IC50: 24.9 µM (inactive)
[15]
  IC50: > 50 µM (inactive)

## O/N=C/c1cn(-c2ccccc2)nc1-c1ccc2c(c1)OCCO2
[16]
  IC50: > 20 µM (inactive)
[17]
  AC50: 0.984 µM (active)
[18]
  AC50: 0.351 µM (active)
[19]
  AC50: 28.4 µM (active)

## CNC(=O)c1cc(Oc2ccc(NC(=O)Nc3ccc(Cl)c(C(F)(F)F)c3)cc2)ccn1 [SORAFENIB]
[20]
  Ki: > 1.58 µM (inactive)

## C[C@H]1CN([C@@H](C)CO)C(=O)Cc2cc(NC(=O)Nc3ccccc3)ccc2O[C@H]1CN(C)Cc1ccccc1
[21]
  AC50: 10.3 µM (active)
[22]
  IC50: 25.1 µM (inactive)
[23]
  IC50: 27.8 µM (inactive)
[24]
  IC50: 21.4 µM (inactive)

## COc1ccc(C[C@H]2CN3C(=NC[C@@H]3Cc3ccccc3)N2CCNC(=O)CCC2CCCCC2)cc1
[25]
  AC50: 11.2 µM (active)
[16]
  IC50: > 20 µM (inactive)
[26]
  AC50: 5.74 µM (active)
[27]
  EC50: 22 µM (active)
[28]
  AC50: 7.94 µM (active)
[29]
  IC50: > 96.6 µM (inactive)
[30]
  AC50: 8.94 µM (active)
[31]
  AC50: 13.4 µM (active)

## CN(Cc1ccccc1)c1cc(-c2c[nH]c3ncccc23)cc(Cl)n1
[32]
  Ki: > 5.01 µM (inactive)
[33]
  Ki: 0.251 µM (active)
[34]
  Ki: 0.00794 µM (active)
[35]
  Ki: 0.158 µM (active)
[36]
  Ki: 0.2 µM (active)
[37]
  Ki: 0.0398 µM (active)
[38]
  Ki: 0.0398 µM (active)
